Data on one compound can be found in patent US20040097408A1, “Compounds regulating cell proliferation and differentiation” (priority 2001, published 2004).

One assay concerns control cells. Description: electron-microscopy analysis of mitochondria. Format: cell-based, mouse. Particulars: 3 μM F16. How it is done:
(§1) Electron-microscopy analysis was performed on untreated or F16-treated A6 cells, control cells and tumor cell lines SH1.1 and SMF to search for potential mitochondria lesions due to F16 accumulation. Cells grown in 35 mm dishes were left untreated or treated with 3 μM F16 for the indicated times, and fixed for 1 hr at room temperature in 0.1 M Cacodylate buffer containing 1.25% formaldehyde, 2.5% glutaraldehyde and 0.3% picric acid. Samples were then treated with 1% osmiuntetroxide/1.5% potassiumferrocyanide, followed by 1% uranyl acetate, dehydrated and epon-araldite embedded. Ultrathin sections were examined using a JEOL 1200EX microscope.

A further assay deals with A6 cells. The assay is described as follows: electron-microscopy analysis of mitochondria. Format: cell-based, mouse. The following applies: 3 μM F16, abnormalities evident as early as 15 hr. The method, then: as §1
In another assay the test system is EpH4-A6 cells. The assay is described as follows: ATP levels (ATP Bioluminescence Assay). The assay is classed as cell-based, mouse. Particulars: 3 μM F16, 24 hr, FIG. 10. How it is done: One of the major roles of mitochondria is to supply energy to the cell. To assess alterations in mitochondrial function, ATP levels were determined in F16-treated cells by the luciferase-catalyzed ATP-dependent bioluminescent oxidation of luciferin using the ATP Bioluminescence Assay Kit (Roche). EpH4-EV and EpH4-A6 cells were grown in the absence or in the presence of 3 μM F16 for 15 hr and 24 hr. As a control A6 were treated with 5 μM FCCP (Sigma). Cells were then harvested, counted and equivalent numbers used for each determination, according to manufacturer's procedure. Each determination was done in triplicate, and the entire experiment was performed twice.

Another assay deals with NAF. The assay is described as follows: cell count proliferation assay. The assay is classed as cell-based, mouse. Set-up: key: +: A positive scoring in these Tables represent cells in which a 2-5 and a 10-40 fold reduction in the total number of cells relative to the control untreated cells was observed after 3 and 7 days of culture with F16, respectively. The following applies: Neu, breast, F16 3 μM, cells counted after 3 and 7 days. An excerpt:
(§2) The following panel of mouse tumor cell lines derived from Neu, Ras and Myc transgenic mice and panel of human cancer cell lines were used: a) Neu-initiated mouse tumor cell lines NF980, NF324-2A, NF324-1B, SMF, NAF, Neu4145, n-Neu, Ras-initiated mouse tumor cell lines SH1,1, AC236, AC711, AC816, ACp53^−#1, ACp53^−4782, AC222, AC99, AC260, ACp53^−#19, ACp53^−#16, AC/Balb6.6, AC/Balb14, AC/Balb12 and Myc-initiated mouse tumor cell lines 16MB9a, 13MA1a; and b) human breast tumor cell lines MDA-MB231, MDA-MB435, MDA-MB436, MDA-MB453, MDA-MB-468, SKBR-3, MCF-7, T47D, ZR75; human prostate cancer cell lines LNCaP, PC-3, DU145 and the human ovarian cancer cell line SKOV-3.
(§3) For each cell line, 10^5 cells were seeded in 4×6 well plates. Next day, F16 was added at 3 μM to the medium of 2 of the plates, while the other two were left untreated (control). Cells were counted 3 days and 7 days after initiation of treatment.
(§4) A positive scoring in these Tables represent cells in which a 2-5 and a 10-40 fold reduction in the total number of cells relative to the control untreated cells was observed after 3 and 7 days of culture with F16, respectively.

In the next assay the test system is AC711. The assay is described as follows: cell count proliferation assay. Format: cell-based, mouse. Details: key: +: A positive scoring in these Tables represent cells in which a 2-5 and a 10-40 fold reduction in the total number of cells relative to the control untreated cells was observed after 3 and 7 days of culture with F16, respectively. Particulars: AC711, Ras, breast; F16 3 μM, cells counted after 3 and 7 days.
Source text: as §2, §3, §4

For another assay, the system named is Neu4145. The assay is described as follows: cell count proliferation assay. Format: cell-based, mouse. Set-up: key: +: A positive scoring in these Tables represent cells in which a 2-5 and a 10-40 fold reduction in the total number of cells relative to the control untreated cells was observed after 3 and 7 days of culture with F16, respectively. Particulars: Neu4145, Neu, breast; F16 3 μM, cells counted after 3 and 7 days.
Source text: as §2, §3, §4

Another assay deals with SH1.1. The assay is described as follows: cell count proliferation assay. Format: cell-based, mouse. Details: key: +: A positive scoring in these Tables represent cells in which a 2-5 and a 10-40 fold reduction in the total number of cells relative to the control untreated cells was observed after 3 and 7 days of culture with F16, respectively. Particulars: SH1.1, Ras, breast; F16 3 μM, cells counted after 3 and 7 days.
Source text: as §2, §3, §4

The next assay concerns n-Neu. The assay is described as follows: cell count proliferation assay. Details: key: +: A positive scoring in these Tables represent cells in which a 2-5 and a 10-40 fold reduction in the total number of cells relative to the control untreated cells was observed after 3 and 7 days of culture with F16, respectively. The assay is classed as cell-based, mouse. Particulars: breast, F16 3 μM, cells counted after 3 and 7 days.
Source text: as §2, §3, §4

The subject of another assay is NF324-1B. The assay is described as follows: cell count proliferation assay. The assay is classed as cell-based, mouse. Set-up: key: +: A positive scoring in these Tables represent cells in which a 2-5 and a 10-40 fold reduction in the total number of cells relative to the control untreated cells was observed after 3 and 7 days of culture with F16, respectively. Particulars: Neu, breast, F16 3 μM, cells counted after 3 and 7 days.
Source text: as §2, §3, §4

The test system of a further assay is AC816. Description: cell count proliferation assay. Format: cell-based, mouse. Details: key: +: A positive scoring in these Tables represent cells in which a 2-5 and a 10-40 fold reduction in the total number of cells relative to the control untreated cells was observed after 3 and 7 days of culture with F16, respectively. The following applies: AC816, Ras, breast; F16 3 μM, cells counted after 3 and 7 days.
Source text: as §2, §3, §4

The next assay deals with AC236. The assay is described as follows: cell count proliferation assay. The assay is classed as cell-based, mouse. Particulars: AC236, Ras, breast; F16 3 μM, cells counted after 3 and 7 days. Set-up: key: +: A positive scoring in these Tables represent cells in which a 2-5 and a 10-40 fold reduction in the total number of cells relative to the control untreated cells was observed after 3 and 7 days of culture with F16, respectively.
Source text: as §2, §3, §4

Another assay relates to SMF. The assay is described as follows: cell count proliferation assay. The following applies: Neu, breast, F16 3 μM, cells counted after 3 and 7 days. Set-up: key: +: A positive scoring in these Tables represent cells in which a 2-5 and a 10-40 fold reduction in the total number of cells relative to the control untreated cells was observed after 3 and 7 days of culture with F16, respectively. Format: cell-based, mouse.
Source text: as §2, §3, §4

Assay [1] concerns F16-resistant normal mammary epithelial and human cancer cell lines. Description: F16 accumulation in the presence of MDR-1 and MRP1 inhibitors. The assay is classed as cell-based. Particulars: 3 μM F16 with 50 μM verapamil/1 mM probenecid. The text has this: To evaluate the effect of multi-drug resistance pumps on the F16-insensitive cells, inhibitors of MDR-1 and MRP1 were utilized (Lizardet al. (1994) Cell Biol Toxicol (10) 399-406).

On to `C[n+]1ccc(/C=C/c2c[nH]c3ccccc23)cc1.[I-]` [F16], for which the mitochondrial ultrastructure result was “no abnormalities in mitochondria morphology” in the assay on control cells; “progressive swelling and disruption of mitochondrial integrity” with A6 cells. For the same compound, the ATP pool result with EpH4-A6 cells is on record as “significant depletion in the ATP pool”. Also, the F16 response entry in the assay with NAF, in the assay with AC711, with Neu4145, in the assay on SH1.1, in the assay with n-Neu and in the assay on NF324-1B was “+” in each case. Moreover, the F16 response entry with AC816, with AC236 and in the assay with SMF was “+” each time. In addition, the “F16 mitochondrial accumulation with MDR-1/MRP1 inhibitors” value in assay [1] is “did not result in F16 mitochondrial accumulation”.
